Results on seven molecules are retold here after patent US7759346B2, “[[2-(amino-3,4-dioxo-1-cyclobuten-1-yl)amino]alkyl]-acid derivatives for the treatment of pain” (priority 2001, dated 2010).

Like-named read-outs stand apart in the source and are kept apart here.

The subject of data set [1] is Spraque-Dawley rats. The data set is described as follows: Prostaglandin E2-induced thermal hypersensitivity, warm-water tail withdrawal, single compound studies. The class given is in vivo, rat. Particulars: for % MPE (reversal of PGE2-induced thermal hypersensitivity): given 30 min before PGE2. Here is the method:
Ketamine and dizocilpine are high affinity use-dependent NMDA receptor channel blockers, while memantine is a moderate affinity use-dependent NMDA receptor channel blocker. CGS-19755 is a competitive NMDA antagonist and ifenprodil is a […] polyamine antagonist. Test Method 1: Prostaglandin E2-Induced Thermal Hypersensitivity.
(§1) The terminal 10 cm of the tail was placed into a thermos bottle containing water warmed to 38, 42, 46, 50, 54, or 58° C. The latency in seconds for the animal to remove the tail from the water was used as a measure of nociception.
(§2) Following the assessment of baseline thermal sensitivity, thermal hypersensitivity was produced by a 50 μL injection of 0.1 mg prostaglandin E2 (PGE2) into the terminal 1 cm of the tail. Temperature-effect curves were generated before (baseline) and after (15, 30, 60, 90 and 120 min) the PGE2 injection.
Single compound studies. The ability of drugs to reverse PGE2-induced thermal hypersensitivity was assessed using a single dose time-course procedure. Under this procedure, a single dose of the compound to be tested was administered intraperitoneally (IP), orally (PO) or intranasally (IN) 30 min before the injection of PGE2. […] sensitivity was assessed 30 min after PGE2 injection.
(§3) Test Method 1 Data Analysis—The temperature that produced a half-maximal increase in the tail-withdrawal latency (i.e., T10) was calculated from each temperature-effect curve. The T10 was determined by interpolation from a line drawn between the point above and the point below 10 sec on the temperature-effect curve. For these studies, thermal hypersensitivity was defined as a leftward shift in the temperature-effect curve and a decrease in the T10 value. Reversal of thermal hypersensitivity was defined as a return to baseline of the temperature-effect curve and the T10 value and was calculated according to the following equation:
[formula] in which T10^drug+PGE2 is the T10 after a drug in combination with PGE2, T10^PGE2 is the T10 after PGE2 alone, and T10^baseline is the T10 under control conditions. A % MPE value of 100 indicates a complete return to the baseline thermal sensitivity observed without the PGE2 injection. […] Test Method 2: Chronic Constriction Injury

Data set [2] concerns cingulate and retrosplenial cortices of mice and rats. The note with it: cited from earlier work.
Data set [3] concerns Spraque-Dawley rats. The data set is described as follows: Observable signs of sedation and ataxia.
In data set [4] the test system is Spraque-Dawley rats. Nature of the data set: Chronic Constriction Injury-induced tactile hypersensitivity (von Frey). The class given is in vivo, rat. Particulars: for % Reversal of CCl-induced tactile hypersensitivity: IP, one week after CCl surgery; for reversal of CCl-induced tactile hypersensitivity (in words): up to doses that produced observable signs of sedation and ataxia. The source says: Rats were anesthetized with 3.5% halothane in O2 at 1 L/min and maintained with 1.5% halothane in O2 during surgery. A modified chronic sciatic nerve constriction injury (Mosconi & Kruger, 1996; Bennett & Xie, 1988) was produced by a cutaneous incision and a blunt dissection through the biceps femoris to expose the sciatic nerve. A PE 90 Polyethylene tubing (Intramedic, Clay Adams; Becton Dickinson Co.) cuff (2 mm length) was placed around the sciatic nerve at the level of the mid-thigh. The wound was closed in layers using 4-0 silk suture and wound clips. Testing was conducted 6-10 days after surgery.
Animals were placed in elevated wire cages and allowed 45-60 minutes to acclimate to the testing room. Baseline tactile sensitivity was assessed using a series of calibrated von Frey monofilaments (Stoelting; Wood Dale, Ill.) 0-3 days before surgery. Von Frey monofilaments were applied to the mid-plantar hind paw in sequential ascending or descending order, as necessary, to hover as closely as possible to the threshold of responses. The threshold was indicated by the lowest force that evoked a brisk withdrawal response to the stimuli. Thus, a withdrawal response led to the presentation of the next lighter stimulus and the lack of a withdrawal response led to the presentation of the next stronger stimulus. Rats with baseline thresholds <10 g force were excluded from the study. […] Under cumulative dosing conditions, compounds were administered IP every 30 minutes with the cumulative dose increasing in ½ log unit increments. Tactile hypersensitivity was assessed 20-30 minutes following each drug administration.
Test Method 2 Data Analysis—The 50% threshold values (in gm force) estimated by the Dixon non-parametric test (Chaplan et al, 1994) was calculated and fifteen-grams of force was used as the maximal force. Dose-effect curves were generated for each experimental condition for each rat. Individual tactile hypersensitivity threshold values were averaged to provide a mean (±1 SEM). Reversal of tactile hypersensitivity was defined as a return to baseline tactile sensitivity and was calculated according to the following equation:
(§4) [formula] in which 50%^drug+CCl is the 50% value after compound in animals approximately one week after CCl surgery, 50%^CCl is the 50% value approximately one week after CCl surgery alone, and 50%^baseline is the 50% value before CCl surgery. Maximal effect of 100% reversal represents a return to the mean pre-operative threshold value for subjects in that experimental condition. Test Method 3: Scheduled-Controlled Responding.

The test system of data set [5] is Spraque-Dawley rats. Nature of the data set: Warm-water tail withdrawal combination studies with morphine. It is filed as in vivo, rat. The note with it: 30 min before testing. Here is the method:
as §1
Combination compound studies. […] Compounds were administered IP at the same time 30 min before testing.
as §3, with “equation: […]” for “equation:”

The test system of data set [6] is Spraque-Dawley rats. It is filed as in vivo, rat. Here is the method:
as §1, §2
Compounds were administered IP at the same time as PGE2, which was administered 30 min before testing.
as §3, with “equation: […]” for “equation:”

Data set [7] relates to Spraque-Dawley rats. The data set is described as follows: Scheduled-controlled responding (operant responding, food presentation). The note with it: for Operant responding: response rate as a percent of control: IP; for rates of responding (in words): schedule of food presentation, Compound A IP or PO at doses that reversed hypersensitivity.
Excerpt: as §4
Rats were trained under a multiple-cycle procedure during experimental sessions conducted five days each week. Each training cycle consisted of a 1-min pretreatment period followed by a 10-min response period. During the pretreatment period, stimulus lights were not illuminated, and responding had no scheduled consequences. During the response period, the left or right stimulus lights were illuminated (counterbalanced among subjects), the response lever was extended and subjects could respond under a fixed ratio 30 schedule of food presentation. Training sessions consisted of 3 consecutive cycles. Testing sessions were identical to training sessions except that a single dose of drug was administered at the start of the first cycle.
Data analysis. Operant response rates from individual animals were averaged for the three cycles during test sessions and were converted to percent of control response rates using the average rate from the previous training day as the control value (i.e., average of three cycles). Data are presented as the mean (±1 SEM) response rate as a percent of control.

The subject of data set [8] is rats trained to discriminate between saline and PCP. The note with it: cited from earlier work.
The next data set relates to monkeys. The note with it: cited from earlier work.
[9] abbreviates: IP, CCl-induced tactile hypersensitivity study.
[10] abbreviates: IP, PGE2-induced thermal hypersensitivity study.

For the molecule `O=C(O)[C@H]1C[C@@H](CP(=O)(O)O)CCN1` (relative stereo) [CGS-19755, cis-4-phosphonomethyl-2-piperidine carboxylic acid], the “% MPE (reversal of PGE2-induced thermal hypersensitivity)” value (“% MPE” below) was 9% in the data set on Spraque-Dawley rats [1] (IP, 3 mg/kg); 25% with Spraque-Dawley rats [1] (IP, 10 mg/kg); 9% in the data set with Spraque-Dawley rats [1] (IP, 30 mg/kg). For the same molecule, in data set [2] (cingulate and retrosplenial cortices of mice and rats), the “vacuolization (in words)” value was “caused vacuolization at behaviorally effective doses”. The effectiveness/vacuolization ratio in data set [2] (mice and rats, behaviorly effective doses) is 1. In addition, in the data set on Spraque-Dawley rats [3] (setting [9]), the “doses that produced observable signs of sedation and ataxia” value (from here on “doses that produced observable signs”) was < 30 mg/kg. The “% Reversal of CCl-induced tactile hypersensitivity” value (shortened to “% Reversal”) in the data set on Spraque-Dawley rats [4] (cumulative dose 3 mg/kg) is −9%; in the data set with Spraque-Dawley rats [4] (cumulative dose 10 mg/kg), −5%; in the data set with Spraque-Dawley rats [4] (cumulative dose 30 mg/kg), −17%. In addition, the “reversal of CCl-induced tactile hypersensitivity (in words)” value in the data set on Spraque-Dawley rats [4] was “none of the comparative compounds produced any reversal”.

In the case of `O=c1c2c(c1=O)N(Cc1nnn[nH]1)CCCN2` [Compound B, 2-[(1H-Tetrazol-5-yl)methyl]-2,6-diazabicyclo[5.2.0]-non-1-(7)-ene-8,9-dione], the “% MPE” value is 16% in the data set on Spraque-Dawley rats [1] (PO, 3 mg/kg); 92% with Spraque-Dawley rats [1] (PO, 10 mg/kg); 101% in the data set on Spraque-Dawley rats [1] (PO, 30 mg/kg). For the same molecule, the “reversal of PGE2-induced thermal hypersensitivity (in words)” value in the data set with Spraque-Dawley rats [1] (rat, in vivo) is given as “full reversal”. Moreover, in the data set on Spraque-Dawley rats [3] (doses used in the CCl-induced tactile hypersensitivity study, IP), the sedation or ataxia result was “not associated with sedation or ataxia”. Also, the “% Reversal” value in the data set with Spraque-Dawley rats [4] (cumulative dose 1 mg/kg) turned out to be 13%; in the data set with Spraque-Dawley rats [4] (cumulative dose 3 mg/kg), 14%; in the data set with Spraque-Dawley rats [4] (cumulative dose 10 mg/kg, 10 mg/kg), 40%; in the data set on Spraque-Dawley rats [4] (cumulative dose 30 mg/kg), 12%.

In the case of `CN1CC[C@]23c4c5ccc(O)c4O[C@H]2[C@@H](O)C=C[C@H]3[C@H]1C5` [Morphine, morphine], the “Change from Baseline (T10)” value is reported as “+2.3” with Spraque-Dawley rats [5] (morphine 5.6 mg/kg IP) and “+0.3” in the data set on Spraque-Dawley rats [6] (rat, in vivo).

On to `C[C@]12N[C@H](Cc3ccccc31)c1ccccc12` [dizocilpine], for which the “% MPE” value in the data set with Spraque-Dawley rats [1] (IP, 0.3 mg/kg) is reported as 18%. The “doses that produced observable signs” value with Spraque-Dawley rats [3] (setting [10]) is reported as < 0.3 mg/kg. Also, the entries for the “Operant responding: response rate as a percent of control” value in the data set on Spraque-Dawley rats [7] (0.1 mg/kg) and in the data set with Spraque-Dawley rats [7] (0.3 mg/kg) were 63% and 16%, respectively. Moreover, the “rates of responding (in words)” value in the data set on Spraque-Dawley rats [7] is on record as “dose-dependently decreased rates of responding”. The “substitution for the PCP-like discriminative stimulus effects” value (“substitution” below) in [8] is given as “substitute for the PCP-like discriminative stimulus effects”.

As to `CC(C(O)c1ccc(O)cc1)N1CCC(Cc2ccccc2)CC1` (centres unmarked) [ifenfrodil, ifenprodil], the “% MPE” value stood at 1% with Spraque-Dawley rats [1] (IP, 10 mg/kg) and 14% with Spraque-Dawley rats [1] (IP, 30 mg/kg).

For `CNC1(c2ccccc2Cl)CCCCC1=O` (centres unmarked) [ketamine], the “% MPE” value with Spraque-Dawley rats [1] (IP, 10 mg/kg) stood at 14%; with Spraque-Dawley rats [1] (IP, 18 mg/kg) it was 9%. The “Change from Baseline (T10)” value in the data set with Spraque-Dawley rats [5] (18.0 mg/kg IP) is recorded as −0.3; in the data set with Spraque-Dawley rats [6] (18.0 mg/kg IP with PGE2, PGE2 + vehicle −5.6), −5.5. The “substitution” value in [8] is given as “substitute for the PCP-like discriminative stimulus effects”.

Regarding `CC12CC3CC(C)(C1)CC(N)(C3)C2` [memantine], the “% MPE” value is 13% in the data set on Spraque-Dawley rats [1] (IP, 3 mg/kg); 15% with Spraque-Dawley rats [1] (IP, 10 mg/kg); −1% in the data set with Spraque-Dawley rats [1] (PO, 10 mg/kg); 11% in the data set on Spraque-Dawley rats [1] (PO, 30 mg/kg); 5% with Spraque-Dawley rats [1] (PO, 100 mg/kg). In addition, the “doses that produced observable signs” value in the data set on Spraque-Dawley rats [3] (setting [9]) is reported as < 10 mg/kg; in the data set on Spraque-Dawley rats [3] (setting [10]), < 10 mg/kg; in the data set on Spraque-Dawley rats [3] (PO, PGE2-induced thermal hypersensitivity study), < 100 mg/kg. For the same molecule, the self-administration entry in the data set with monkeys is “maintains self-administration”. In addition, the “% Reversal” value in the data set with Spraque-Dawley rats [4] (cumulative dose 3 mg/kg) is listed as −25%; in the data set on Spraque-Dawley rats [4] (cumulative dose 10 mg/kg) it was −45%. Moreover, the “reversal of CCl-induced tactile hypersensitivity (in words)” value in the data set with Spraque-Dawley rats [4] is given as “none of the comparative compounds produced any reversal”. Further, the “Operant responding: response rate as a percent of control” value came out at 93% in the data set with Spraque-Dawley rats [7] (3 mg/kg) and 2% in the data set on Spraque-Dawley rats [7] (10 mg/kg). Further, the “rates of responding (in words)” value with Spraque-Dawley rats [7] was “dose-dependently decreased rates of responding”. The “substitution” value in [8] is “substitute for the PCP-like discriminative stimulus effects”.
